Here are results for 20 compounds from patent US11912693B2, “Compounds for modulating S1P1 activity and methods of using the same” (TREVENA, INC., priority 2017, dated 2024).

Assay [1] concerns the target T1, human sphingosine-1-phosphate receptor 1 (S1P1) (Homo sapiens (Human), UniProt P21453). The assay can be described thus: Inhibition of cAMP production (HTRF cAMP HiRange), S1P1 CHO-K1 cells. It is filed as cell-based. As to conditions: for Emax: CHO-K1, efficacy (SPAN) normalized to fingolimod, read-out: hS1P1 cAMP SPAN; for hS1P1 cAMP pEC50: inhibition of cAMP production, S1P1 CHO-K1 cells. An outline of the steps:
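CHO-K1 cells stably co-expressing human S1P1 (C-terminal Prolink tag) and EA-β-arrestin2 were grown in AssayComplete Media 6 at 37° C. and 5% CO2, plated, and incubated overnight. Agonist-driven inhibition of intracellular cAMP was read by TR-FRET with the HTRF cAMP HiRange kit on a PheraStar reader. Potency is pEC50, and efficacy (SPAN) is normalized to fingolimod.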
Target sequence in this assay (P21453 whole entry, looked up): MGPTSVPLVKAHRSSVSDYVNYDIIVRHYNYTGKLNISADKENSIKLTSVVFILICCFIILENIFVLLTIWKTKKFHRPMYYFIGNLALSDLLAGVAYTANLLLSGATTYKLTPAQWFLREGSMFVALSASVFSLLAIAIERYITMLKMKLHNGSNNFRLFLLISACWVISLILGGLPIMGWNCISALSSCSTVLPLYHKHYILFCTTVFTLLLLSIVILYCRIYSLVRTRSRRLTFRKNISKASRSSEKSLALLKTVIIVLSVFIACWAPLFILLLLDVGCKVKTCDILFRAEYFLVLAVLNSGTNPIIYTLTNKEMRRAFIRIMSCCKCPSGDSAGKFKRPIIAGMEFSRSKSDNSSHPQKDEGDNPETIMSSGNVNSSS

Assay [2] deals with T1, human sphingosine-1-phosphate receptor 1 (S1P1). The experiment in a line: β-Arrestin2 recruitment assay (PathHunter), S1P1 CHO-K1 cells. It is filed as cell-based. As to conditions: for Emax: CHO-K1, efficacy (SPAN) normalized to fingolimod, read-out: hS1P1 B-arrestin2 SPAN; for hS1P1 B-arrestin2 pEC50: β-arrestin2 recruitment, S1P1 CHO-K1 cells. The method, boiled down: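 Enzyme-fragment complementation read-out: agonist-driven β-arrestin2 binding to ProLink-tagged human S1P1 in stable CHO-K1 cells restores β-galactosidase, measured 1 h at room temperature after a 60 min 37° C. compound incubation. Potency as pEC50, efficacy relative to fingolimod (SPAN).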
Target sequence in this assay (P21453 whole entry, looked up): as above
Target sequence in this assay (P32121 whole entry partner, looked up): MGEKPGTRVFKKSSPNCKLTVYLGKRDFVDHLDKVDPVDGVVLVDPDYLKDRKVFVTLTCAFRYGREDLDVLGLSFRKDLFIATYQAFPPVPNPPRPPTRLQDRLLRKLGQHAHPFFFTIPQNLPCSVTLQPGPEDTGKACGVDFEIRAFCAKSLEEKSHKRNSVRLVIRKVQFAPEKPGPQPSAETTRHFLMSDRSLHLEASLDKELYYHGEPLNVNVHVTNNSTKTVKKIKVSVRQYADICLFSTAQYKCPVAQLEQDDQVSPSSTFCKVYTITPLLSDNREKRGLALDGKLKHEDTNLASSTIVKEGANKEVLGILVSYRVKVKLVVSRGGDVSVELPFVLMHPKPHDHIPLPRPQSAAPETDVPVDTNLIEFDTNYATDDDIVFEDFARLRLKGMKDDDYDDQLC
Background: Arrestin recruitment assays detect the binding of arrestin to an activated receptor.

For `O=C1CC2(CCCCC2)Oc2ccc(-c3nc(-c4cccnc4)no3)cc21` [Compound 41, 6-[3-(pyridin-3-yl)-1,2,4-oxadiazol-5-yl]-3,4-dihydrospiro[1-benzopyran-2,1′-cyclohexane]-4-one], in assay [1], the Emax is less than 75% and the “hS1P1 cAMP pEC50” value is less than 6.5. Further, in assay [2], the Emax was less than 75% and the “hS1P1 B-arrestin2 pEC50” value is less than 5.
Consider `CCC1CC(=O)c2ccc(-c3nc(-c4cccnc4)no3)cc2O1` (centres unmarked) [Compound 588, 2-ethyl-7-[3-(pyridin-3-yl)-1,2,4-oxadiazol-5-yl]-3,4-dihydro-2H-1-benzopyran-4-one], for which the “hS1P1 cAMP pEC50” value in assay [1] was less than 6.5. Also, the “hS1P1 B-arrestin2 pEC50” value in assay [2] is recorded as less than 5.
Regarding `Cc1ncc(-c2nc(-c3ccc4c(c3)nnn4C(C)C)no2)nc1C` [Compound 133, 5-(5,6-dimethylpyrazin-2-yl)-3-(1-isopropyl-1H-benzo[d][1,2,3]triazol-5-yl)-1,2,4-oxadiazole], in assay [1], the Emax is less than 75% and the “hS1P1 cAMP pEC50” value is less than 6.5. In assay [2], the Emax was less than 75% and the “hS1P1 B-arrestin2 pEC50” value is given as less than 5.
As to `Cc1ncccc1-c1nc(-c2ccc3c(c2)nnn3C(C)C)no1` [Compound 194, 3-(1-isopropyl-1H-benzo[d][1,2,3]triazol-5-yl)-5-(2-methylpyridin-3-yl)-1,2,4-oxadiazole], in assay [1], the Emax was less than 75% and the “hS1P1 cAMP pEC50” value is listed as less than 6.5. For the same compound, in assay [2], the Emax is less than 75% and the “hS1P1 B-arrestin2 pEC50” value is on record as less than 5.
For the compound `Cc1ccccc1C(C)c1noc(-c2ccc3c(c2)nnn3C(C)C)n1` (centres unmarked) [Compound 172, 5-{3-[1-(2-methylphenyl)ethyl]-1,2,4-oxadiazol-5-yl}-1-(propan-2-yl)-1H-1,2,3-benzotriazole], in assay [1], the Emax was less than 75% and the “hS1P1 cAMP pEC50” value is reported as less than 6.5. Further, in assay [2], the Emax is less than 75% and the “hS1P1 B-arrestin2 pEC50” value is on record as less than 5.
`CCC1(CC)CC(=O)c2cc(-c3nc(-c4cncc(F)c4)no3)ccc2O1` [Compound 551, 2,2-diethyl-6-(3-(5-fluoropyridin-3-yl)-1,2,4-oxadiazol-5-yl)chroman-4-one]: the “hS1P1 cAMP pEC50” value in assay [1] is reported as more than 6.5. For the same compound, the “hS1P1 B-arrestin2 pEC50” value in assay [2] is listed as more than 5.
For `N#Cc1cc(-c2nnc(-c3ccc4c(c3)ncn4CCO)o2)ccc1NCC(F)F` [Compound 578, 2-[(2,2-difluoroethyl)amino]-5-{5-[1-(2-hydroxyethyl)-1H-1,3-benzodiazol-5-yl]-1,3,4-oxadiazol-2-yl}benzonitrile], the “hS1P1 cAMP pEC50” value in assay [1] is reported as less than 6.5. Moreover, in assay [2], the “hS1P1 B-arrestin2 pEC50” value is reported as less than 5.
Turning to `COc1ccccc1-c1nc(-c2ccc3c(c2)nnn3C2CCCC2)no1` [Compound 120, 3-(1-cyclopentyl-1H-benzo[d][1,2,3]triazol-5-yl)-5-(2-methoxyphenyl)-1,2,4-oxadiazole], in assay [1], the Emax was more than 75% and the “hS1P1 cAMP pEC50” value is more than 6.5. In assay [2], the Emax is more than 75% and the “hS1P1 B-arrestin2 pEC50” value was more than 5.
Consider `CC(C)n1nnc2cc(-c3nc(-c4ccccc4O)no3)ccc21` [Compound 180, 2-(5-(1-isopropyl-1H-benzo[d][1,2,3]triazol-5-yl)-1,2,4-oxadiazol-3-yl)phenol], for which the “hS1P1 cAMP pEC50” value in assay [1] was less than 6.5. Also, in assay [2], the “hS1P1 B-arrestin2 pEC50” value is listed as less than 5.
Consider `CCC1(CC)CC(=O)c2cc(-c3nc(-c4cnccn4)no3)ccc2O1` [Compound 617, 2,2-diethyl-6-(3-(pyrazin-2-yl)-1,2,4-oxadiazol-5-yl)chroman-4-one], for which the “hS1P1 cAMP pEC50” value in assay [1] was less than 6.5. Moreover, in assay [2], the “hS1P1 B-arrestin2 pEC50” value is less than 5.
As to `COc1cc(NC(C)=O)ccc1-c1nc(-c2ccncc2)no1` [Compound 582, N-{3-methoxy-4-[3-(pyridin-4-yl)-1,2,4-oxadiazol-5-yl]phenyl}acetamide], in assay [1], the “hS1P1 cAMP pEC50” value is on record as less than 6.5. In addition, in assay [2], the “hS1P1 B-arrestin2 pEC50” value is recorded as less than 5.
Take `CC(C)n1nnc2cc(-c3noc(-c4ccccc4N)n3)ccc21` [Compound 576, 2-{3-[1-(propan-2-yl)-1H-1,2,3-benzotriazol-5-yl]-1,2,4-oxadiazol-5-yl}aniline]: in assay [1], the Emax is more than 75% and the “hS1P1 cAMP pEC50” value is more than 6.5. In assay [2], the Emax is less than 75% and the “hS1P1 B-arrestin2 pEC50” value is recorded as more than 5.
With `O=C1CC2(CCCC2)Oc2ccc(-c3nc(-c4cccnc4)no3)cc21` [Compound 298, 6-[3-(pyridin-3-yl)-1,2,4-oxadiazol-5-yl]-3,4-dihydrospiro[1-benzopyran-2,1′-cyclopentane]-4-one], in assay [1], the “hS1P1 cAMP pEC50” value was less than 6.5. The “hS1P1 B-arrestin2 pEC50” value in assay [2] is more than 5.
With `COc1cc(-c2noc(-c3ccc4c(c3)nnn4C3CC3)n2)ccn1` [Compound 155, 1-cyclopropyl-5-[3-(2-methoxypyridin-4-yl)-1,2,4-oxadiazol-5-yl]-1H-1,2,3-benzotriazole], the “hS1P1 cAMP pEC50” value in assay [1] is on record as less than 6.5. Further, the “hS1P1 B-arrestin2 pEC50” value in assay [2] was less than 5.
With `Cc1nccnc1-c1nc(-c2ccc3c(c2)nnn3CC(C)(C)CO)no1` [Compound 540, 2,2-dimethyl-3-(5-(5-(3-methylpyrazin-2-yl)-1,2,4-oxadiazol-3-yl)-1H-benzo[d][1,2,3]triazol-1-yl)propan-1-ol], the “hS1P1 cAMP pEC50” value in assay [1] was less than 6.5. The “hS1P1 B-arrestin2 pEC50” value in assay [2] is reported as less than 5.
As to `CCC1(CC)CC(=O)c2cc(-c3nc(-c4ccnc(OC)c4)no3)ccc2O1` [Compound 38, 2,2-diethyl-6-(3-(2-methoxypyridin-4-yl)-1,2,4-oxadiazol-5-yl)chroman-4-one], in assay [1], the Emax was less than 75% and the “hS1P1 cAMP pEC50” value is listed as less than 6.5. Besides, in assay [2], the Emax is more than 75% and the “hS1P1 B-arrestin2 pEC50” value is given as less than 5.
As to `CCCn1nnc2cc(-c3nc(-c4ccncc4)no3)ccc21` [Compound 205, 1-propyl-5-[3-(pyridin-4-yl)-1,2,4-oxadiazol-5-yl]-1H-1,2,3-benzotriazole], in assay [1], the Emax was more than 75% and the “hS1P1 cAMP pEC50” value is reported as less than 6.5. Further, in assay [2], the Emax was less than 75% and the “hS1P1 B-arrestin2 pEC50” value is reported as less than 5.
Turning to `COCC1(COC)CC(=O)c2cc(-c3nc(-c4cccnc4)no3)ccc2O1` [Compound 186, 2,2-bis(methoxymethyl)-6-[3-(pyridin-3-yl)-1,2,4-oxadiazol-5-yl]-3,4-dihydro-2H-1-benzopyran-4-one], in assay [1], the Emax is less than 75% and the “hS1P1 cAMP pEC50” value is given as less than 6.5. Further, in assay [2], the Emax was less than 75% and the “hS1P1 B-arrestin2 pEC50” value was less than 5.
Take `O=C1CC2(CCC(F)(F)CC2)Oc2ccc(-c3nc(-c4cccnc4)no3)cc21` [Compound 36, 4′,4′-difluoro-6-[3-(pyridin-3-yl)-1,2,4-oxadiazol-5-yl]-3,4-dihydrospiro[1-benzopyran-2,1′-cyclohexane]-4-one]: in assay [1], the Emax is less than 75% and the “hS1P1 cAMP pEC50” value is reported as less than 6.5. Moreover, in assay [2], the Emax was less than 75% and the “hS1P1 B-arrestin2 pEC50” value is given as less than 5.
For `CCC1(CC)CC(=O)c2cc(-c3nc(-c4ccc(O)nc4)no3)ccc2O1` [Compound 105, 2,2-diethyl-6-[3-(6-hydroxy-3-pyridyl)-1,2,4-oxadiazol-5-yl]chroman-4-one], in assay [1], the Emax was less than 75% and the “hS1P1 cAMP pEC50” value is reported as less than 6.5. In assay [2], the Emax is less than 75% and the “hS1P1 B-arrestin2 pEC50” value is reported as less than 5.
